Data from patent US9708336B2, “Metallo-beta-lactamase inhibitors” (priority 2014, dated 2017).
Where two headings read alike, the source gives them in different places.

Tests used:
NDM-1 = NDM-1 (Klebsiella pneumoniae, UniProt C7C422); assay: biochemical; assay type: biochemical; conditions: read-out: NDM-1 IC50
IMP-1 = IMP-1 (Serratia marcescens, UniProt P52699); assay: biochemical; assay type: biochemical; conditions: read-out: IMP-1 IC50
VIM-1 = VIM-1 (Pseudomonas aeruginosa (strain ATCC 15692 / DSM 22644 / CIP 104116 / JCM 14847 / LMG 12228 / 1C / PRS 101 / PAO1), UniProt A0A0F7KYQ8); assay: Enzyme activity: determination of IC50, fluorescence assay with CCF2-FA substrate (VIM-1); assay type: biochemical
[1] = test system: Escherichia coli expressing NDM-1 (CLB30016); assay: Antibiotic potentiation activity: synergistic concentration (MITC95) with imipenem, OD600 growth; assay type: cell-based; conditions: for Escherichia coli expressing NDM-1 (CLB 30016) MITC95: concentration giving 95% inhibition of bacterial growth
How it was run: (§1)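 Bacteria were grown overnight on agar at 35 °C, diluted 1:100 from saline into 1.1× CAMHB, then given compound with or without imipenem (4 μg/ml in assay, optionally 1 μg/ml). Endpoint: absorbance at 22–24 h.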

[2] = test system: Klebsiella pneumoniae expressing VIM-1 (IHMA599644); assay: as above; assay type: cell-based; conditions: for Klebsiella pneumoniae expressing VIM-1 (IHMA 599644) MITC95: concentration giving 95% inhibition of bacterial growth
How it was run: as §1

[3] = test system: Serratia marcescens expressing IMP-1 (CL5741); assay: as above; assay type: cell-based; conditions: for Serratia marcescens expressing IMP-1 (CL5741) MITC95: concentration giving 95% inhibition of bacterial growth
How it was run: as §1

[4] = NDM-1 enzyme, CCF2-FA substrate
[5] = IMP-1 enzyme, CCF2-FA substrate
[6] = VIM-1 IC50, VIM-1 enzyme, CCF2-FA substrate
[7] = (CLB30016, NDM-1), 95% growth inhibition
[8] = Klebsiella pneumoniae IHMA599644 (VIM-1), 95% growth inhibition
[9] = Serratia marcescens CL5741 (IMP-1), 95% growth inhibition
[10] = fluorescence assay with CCF2-FA substrate
[11] = fluorescence assay with CCF2-FA substrate, read-out: VIM-1 IC50
[12] = VIM-1 enzyme, CCF2-FA substrate, read-out: VIM-1 IC50
[13] = NDM-1 enzyme, CCF2-FA fluorescence assay
[14] = IMP-1 enzyme, CCF2-FA fluorescence assay
[15] = VIM-1 enzyme, CCF2-FA fluorescence assay, read-out: VIM-1 IC50
[16] = Escherichia coli expressing NDM-1 (CLB30016), 95% growth inhibition
[17] = Klebsiella pneumoniae expressing VIM-1 (IHMA599644), 95% growth inhibition
[18] = Serratia marcescens expressing IMP-1 (CL5741), 95% growth inhibition
[19] = CLB30016 (NDM-1), 95% inhibition of bacterial growth
[20] = IHMA599644 (VIM-1), 95% inhibition of bacterial growth
[21] = CL5741 (IMP-1), 95% inhibition of bacterial growth

NDM-1, sequence (C7C422 whole entry, looked up, species assumed): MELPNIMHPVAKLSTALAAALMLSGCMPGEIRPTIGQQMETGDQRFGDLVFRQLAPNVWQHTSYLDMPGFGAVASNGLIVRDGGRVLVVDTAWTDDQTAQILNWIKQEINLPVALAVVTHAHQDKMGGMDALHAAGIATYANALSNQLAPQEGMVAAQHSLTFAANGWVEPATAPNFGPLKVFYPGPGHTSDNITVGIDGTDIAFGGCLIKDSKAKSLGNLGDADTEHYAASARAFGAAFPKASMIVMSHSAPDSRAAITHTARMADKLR
IMP-1, sequence (P52699 whole entry, looked up): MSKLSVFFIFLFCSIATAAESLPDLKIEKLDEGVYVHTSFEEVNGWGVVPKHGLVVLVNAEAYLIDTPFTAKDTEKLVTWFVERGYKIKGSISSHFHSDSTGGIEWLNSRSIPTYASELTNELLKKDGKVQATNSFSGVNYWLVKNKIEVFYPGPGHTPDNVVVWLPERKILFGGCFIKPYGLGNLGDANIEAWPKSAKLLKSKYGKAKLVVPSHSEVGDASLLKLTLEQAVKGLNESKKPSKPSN

SMILES	IC50 (NDM-1; [4])	IC50 (IMP-1; [5])	Escherichia coli MITC95 [1, 7]	Klebsiella pneumoniae MITC95 [2, 8]	Serratia marcescens MITC95 [3, 9]	IC50 (VIM-1; [12])	other results
NS(=O)(=O)c1c(C(F)(F)F)ccc(-c2ccc(C(O)C3CCNCC3)cc2)c1-c1nnn[nH]1 (stereo not drawn) [Example 738, 4′-[hydroxy(piperidin-4-yl)methyl]-2-(1H-tetrazol-5-yl)-4-(trifluoromethyl)biphenyl-3-sulfonamide]	1.28 nM	2.28 nM	3.125 µM	50 µM	6.25 µM	–	IC50 (VIM-1; [6]): 3.41 nM
NS(=O)(=O)c1nccc(N2CCC(n3ccnc3)CC2)c1-c1nnn[nH]1 [Example 228, 4-[4-(1H-imidazol-1-yl)piperidin-1-yl]-3-(1H-tetrazol-5-yl)pyridine-2-sulfonamide]	–	–	–	–	–	–	IC50 (NDM-1; [10]): 372 nM; IC50 (IMP-1; [10]): 3210 nM; IC50 (VIM-1; [11]): 343 nM; Escherichia coli expressing NDM-1 (CLB 30016) MITC95 [1]: 1.563 µM; Klebsiella pneumoniae expressing VIM-1 (IHMA 599644) MITC95 [2]: 37.5 µM; Serratia marcescens expressing IMP-1 (CL5741) MITC95 [3]: 37.5 µM
NC1CC(N[C@H]2CC[C@H](c3ccc(C(F)(F)F)c(S(N)(=O)=O)c3-c3nnn[nH]3)CC2)C1 (stereo partly drawn) [Example 694, 3-{4-[(3-aminocyclobutyl)amino]cyclohexyl}-2-(1H-tetrazol-5-yl)-6-(trifluoromethyl)benzene sulfonamide]	4.84 nM	18.6 nM	0.3906 µM	1.563 µM	1.563 µM	–	IC50 (VIM-1; [6]): 2.46 nM
Nc1cc(-c2cccc(S(N)(=O)=O)c2-c2nn[nH]n2)cnc1N [Example 523, 3-(5,6-Diaminopyridin-3-yl)-2-(2H-tetrazol-5-yl)benzenesulfonamide]	20.2 nM	1210 nM	0.125 µM	4.125 µM	9.375 µM	226 nM	–
CC(C)(O)C1CN(Cc2ccc(-c3cccc(S(N)(=O)=O)c3-c3nnn[nH]3)cc2)C1 [Example 336, 4′-((3-(2-hydroxypropan-2-yl)azetidin-1-yl)methyl)-2-(1H-tetrazol-5-yl)-[1,1′-biphenyl]-3-sulfonamide]	–	–	–	–	–	–	IC50 (NDM-1; [13]): 34 nM; IC50 (IMP-1; [14]): 379 nM; IC50 (VIM-1; [15]): 634 nM; Escherichia coli MITC95 [1, 16]: 0.7813 µM; Klebsiella pneumoniae MITC95 [2, 17]: 100 µM; Serratia marcescens MITC95 [3, 18]: 4.688 µM
CNC1CC(N2CC(c3ccc(-c4ccc(C(F)(F)F)c(S(N)(=O)=O)c4-c4nnn[nH]4)cc3)C2)C1 (stereo not drawn) [Example 815, 4′-{1-[3-(methylamino)cyclobutyl]azetidin-3-yl}-2-(1H-tetrazol-5-yl)-4-(trifluoromethyl)biphenyl-3-sulfonamide]	–	–	–	–	–	–	IC50 (NDM-1; [10]): 4.84 nM; IC50 (IMP-1; [10]): 6.01 nM; IC50 (VIM-1; [11]): 18 nM; Escherichia coli MITC95 [1, 19]: 1.563 µM; Klebsiella pneumoniae MITC95 [2, 20]: 100 µM; Serratia marcescens MITC95 [3, 21]: 3.125 µM
NCCCNc1nc2c(-c3cccc(S(N)(=O)=O)c3-c3nnn[nH]3)cccc2s1 [Example 643, 3-[2-(3-aminopropylamino)-1,3-benzothiazol-4-yl]-2-(1H-tetrazol-5-yl)benzenesulfonamide]	2.34 nM	101 nM	1.563 µM	25 µM	25 µM	12.3 nM	–
NS(=O)(=O)c1c(C(F)(F)F)ccc(N2CCC[C@@H](O)C2)c1-c1nnn[nH]1 [Example 665, 3-[(3R)-3-hydroxypiperidin-1-yl]-2-(1H-tetrazol-5-yl)-6-(trifluoromethyl)benzenesulfonamide]	7.48 nM	29.8 nM	1.563 µM	4.688 µM	1.172 µM	0.999 nM	–
NS(=O)(=O)c1cccc(-c2cc3cnccc3s2)c1-c1nnn[nH]1 [Example 411, 2-(1H-tetrazol-5-yl)-3-thieno[3,2-c]pyridin-2-yl-benzenesulfonamide]	–	–	–	–	–	–	IC50 (NDM-1; [13]): 4.84 nM; IC50 (IMP-1; [14]): 102 nM; IC50 (VIM-1; [15]): 27.8 nM; Escherichia coli MITC95 [1, 16]: 0.7813 µM; Klebsiella pneumoniae MITC95 [2, 17]: 25 µM; Serratia marcescens MITC95 [3, 18]: 3.125 µM
NC[C@H]1CC[C@H](c2ccc(CC3CCNCC3)c(S(N)(=O)=O)c2-c2nn[nH]n2)CC1 [Example 589, 3-((1r,4r)-4-(aminomethyl)cyclohexyl)-6-(piperidin-4-ylmethyl)-2-(2H-tetrazol-5-yl)benzenesulfonamide]	8.75 nM	146 nM	1.172 µM	9.375 µM	4.688 µM	93.9 nM	–
NC1CC(N[C@H]2CC[C@H](c3ccc(C(F)(F)F)c(S(N)(=O)=O)c3-c3nnn[nH]3)CC2)C1 (stereo partly drawn) [Example 702, 3-{4-[(3-aminocyclobutyl)amino]cyclohexyl}-2-(1H-tetrazol-5-yl)-6-(trifluoromethyl)benzene sulfonamide]	4.02 nM	25.2 nM	0.7813 µM	1.563 µM	3.125 µM	–	IC50 (VIM-1; [6]): 2.25 nM
NS(=O)(=O)c1cccc(-c2cccc(S(N)(=O)=O)c2-c2nnn[nH]2)c1 [Example 118, 2-(1H-tetrazol-5-yl)-[1,1′-biphenyl]-3,3′-disulfonamide]	–	–	–	–	–	–	IC50 (NDM-1; [10]): 44.2 nM; IC50 (IMP-1; [10]): 1330 nM; IC50 (VIM-1; [11]): 492 nM; Escherichia coli expressing NDM-1 (CLB 30016) MITC95 [1]: 0.7813 µM; Klebsiella pneumoniae expressing VIM-1 (IHMA 599644) MITC95 [2]: 50 µM; Serratia marcescens expressing IMP-1 (CL5741) MITC95 [3]: 18.75 µM
NCCC1CCC(N2CC(c3ccc(-c4ccc(C(F)(F)F)c(S(N)(=O)=O)c4-c4nnn[nH]4)cc3)C2)CC1 (stereo not drawn) [Example 814, 4′-{1-[4-(2-aminoethyl)cyclohexyl]azetidin-3-yl}-2-(1H-tetrazol-5-yl)-4-(trifluoromethyl)biphenyl-3-sulfonamide]	–	–	–	–	–	–	IC50 (NDM-1; [10]): 8.08 nM; IC50 (IMP-1; [10]): 12.5 nM; IC50 (VIM-1; [11]): 22.5 nM; Escherichia coli MITC95 [1, 19]: 6.25 µM; Klebsiella pneumoniae MITC95 [2, 20]: 100 µM; Serratia marcescens MITC95 [3, 21]: 6.25 µM
COCc1cc(CCc2ccc(C(F)(F)F)c(S(N)(=O)=O)c2-c2nn[nH]n2)cnc1N [Example 512, 3-(2-(6-Amino-5-(methoxymethyl)pyridin-3-yl)ethyl)-2-(2H-tetrazol-5-yl)-6-(trifluoromethyl)benzenesulfonamide]	162 nM	46 nM	9.375 µM	2.344 µM	0.9766 µM	3.9 nM	–
NS(=O)(=O)c1c(C(F)(F)F)ccc(N2CCCC(CCO)C2)c1-c1nnn[nH]1 (stereo not drawn) [Example 660, 3-[3-(2-hydroxyethyl)piperidin-1-yl]-2-(1H-tetrazol-5-yl)-6-(trifluoromethyl)benzenesulfonamide]	4.7 nM	10.4 nM	2.344 µM	6.25 µM	0.3906 µM	1.31 nM	–
NCCc1ccc(-c2ccc(C(F)(F)F)c(S(N)(=O)=O)c2-c2nnn[nH]2)cc1 [Example 707, 4′-(2-aminoethyl)-2-(1H-tetrazol-5-yl)-4-(trifluoromethyl)biphenyl-3-sulfonamide]	5.59 nM	6.67 nM	3.125 µM	1.563 µM	6.25 µM	0.249 nM	–
NS(=O)(=O)c1nccc(NC2CCCCC2)c1-c1nnn[nH]1 [Example 234, 4-(cyclohexylamino)-3-(1H-tetrazol-5-yl)pyridine-2-sulfonamide]	–	–	–	–	–	–	IC50 (NDM-1; [10]): 24.5 nM; IC50 (IMP-1; [10]): 1450 nM; IC50 (VIM-1; [11]): 1170 nM; Escherichia coli expressing NDM-1 (CLB 30016) MITC95 [1]: 4.688 µM; Klebsiella pneumoniae expressing VIM-1 (IHMA 599644) MITC95 [2]: >200 µM; Serratia marcescens expressing IMP-1 (CL5741) MITC95 [3]: 100 µM
Cl.Cl.NC1CNCCC1(O)c1ccc(-c2cccc(S(N)(=O)=O)c2-c2nn[nH]n2)cc1 (racemic) [Example 282, 4′-(3-amino-4-hydroxypiperidin-4-yl)-2-(2H-tetrazol-5-yl)-[1,1′-biphenyl]-3-sulfonamide dihydrochloride (trans, racemate)]	–	–	–	–	–	–	IC50 (NDM-1; [13]): 21.5 nM; IC50 (IMP-1; [14]): 266 nM; IC50 (VIM-1; [15]): 183 nM; Escherichia coli MITC95 [1, 16]: 0.7813 µM; Klebsiella pneumoniae MITC95 [2, 17]: 12.5 µM; Serratia marcescens MITC95 [3, 18]: 1.563 µM
